Experimental data: the supplement of paper PMC10307832

Columns and labels:
Assay in all cases: relative viability (nuclei count vs DMSO), 5 days (fraction); higher = more cells survive
Dinaciclib + Bortezomib = compound: CCc1cnn2c(NCc3ccc[n+]([O-])c3)cc(N3CCCC[C@H]3CCO)nc12 [Dinaciclib] + CC(C)C[C@H](NC(=O)[C@H](Cc1ccccc1)NC(=O)c1cnccn1)B(O)O [Bortezomib] (partner 0.002 µM)
Summary of the method: (§1)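 Lung cancer cell lines in 1536-well plates were dosed by pin tool the day after seeding, either with one drug alone or with a fixed anchor-drug dose plus five library-drug doses (not always all listed) in √10 steps. After 5 days, cells were fixed and their nuclei stained in one step (final 0.05% Triton X-100, 1% formaldehyde, 1 ug/ml Hoechst), then counted on 4× images. Relative viability is the nuclei count in treated wells divided by that in vehicle wells. Values are medians of duplicate plates.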

Dinaciclib + Navitoclax = compound: CCc1cnn2c(NCc3ccc[n+]([O-])c3)cc(N3CCCC[C@H]3CCO)nc12 [Dinaciclib] + CC1(C)CCC(c2ccc(Cl)cc2)=C(CN2CCN(c3ccc(C(=O)NS(=O)(=O)c4ccc(N[C@H](CCN5CCOCC5)CSc5ccccc5)c(S(=O)(=O)C(F)(F)F)c4)cc3)CC2)C1 [Navitoclax] (partner 0.5 µM)
Summary of the method: as §1

Dinaciclib + OSI-027 = compound: CCc1cnn2c(NCc3ccc[n+]([O-])c3)cc(N3CCCC[C@H]3CCO)nc12 [Dinaciclib] + COc1cccc2cc(-c3nc([C@H]4CC[C@H](C(=O)O)CC4)n4ncnc(N)c34)[nH]c12 [OSI-027] (partner 0.5 µM)
Summary of the method: as §1

Dinaciclib + Lapatinib = compound: CCc1cnn2c(NCc3ccc[n+]([O-])c3)cc(N3CCCC[C@H]3CCO)nc12 [Dinaciclib] + CS(=O)(=O)CCNCc1ccc(-c2ccc3ncnc(Nc4ccc(OCc5cccc(F)c5)c(Cl)c4)c3c2)o1 [Lapatinib] (partner 2 µM)
Summary of the method: as §1

Dinaciclib + Pictilisib = compound: CCc1cnn2c(NCc3ccc[n+]([O-])c3)cc(N3CCCC[C@H]3CCO)nc12 [Dinaciclib] + CS(=O)(=O)N1CCN(Cc2cc3nc(-c4cccc5[nH]ncc45)nc(N4CCOCC4)c3s2)CC1 [Pictilisib] (partner 1 µM)
Summary of the method: as §1

Cell Line | relative viability (Dinaciclib + Bortezomib; first compound 0.009487 µM) | relative viability (Dinaciclib + Bortezomib; first compound 0.03 µM) | relative viability (Dinaciclib + Bortezomib; first compound 0.09487 µM) | relative viability (Dinaciclib + Bortezomib; first compound 0.3 µM) | relative viability (Dinaciclib + Navitoclax; first compound 0.009487 µM) | relative viability (Dinaciclib + Navitoclax; first compound 0.03 µM) | relative viability (Dinaciclib + Navitoclax; first compound 0.09487 µM) | relative viability (Dinaciclib + Navitoclax; first compound 0.3 µM) | relative viability (Dinaciclib + OSI-027; first compound 0.009487 µM) | relative viability (Dinaciclib + OSI-027; first compound 0.03 µM) | relative viability (Dinaciclib + OSI-027; first compound 0.09487 µM) | relative viability (Dinaciclib + OSI-027; first compound 0.3 µM) | relative viability (Dinaciclib + Lapatinib; first compound 0.009487 µM) | relative viability (Dinaciclib + Lapatinib; first compound 0.03 µM) | relative viability (Dinaciclib + Lapatinib; first compound 0.09487 µM) | relative viability (Dinaciclib + Lapatinib; first compound 0.3 µM) | relative viability (Dinaciclib + Pictilisib; first compound 0.009487 µM) | relative viability (Dinaciclib + Pictilisib; first compound 0.03 µM) | relative viability (Dinaciclib + Pictilisib; first compound 0.09487 µM) | relative viability (Dinaciclib + Pictilisib; first compound 0.3 µM)
EMC-BAC-2 | 0.978 | 0.779 | 0.137 | 0.148 | 1.22 | 0.576 | 0.205 | 0.213 | 0.353 | 0.188 | 0.207 | 0.217 | 0.85 | 0.598 | 0.165 | 0.157 | 0.621 | 0.303 | 0.136 | 0.15
LU99A | 0.645 | 0.134 | 0.135 | 0.122 | 0.363 | 0.13 | 0.126 | 0.121 | 0.284 | 0.202 | 0.153 | 0.144 | 0.759 | 0.121 | 0.13 | 0.127 | 0.283 | 0.134 | 0.109 | 0.122
PC-3 [JPC-3] | 0.679 | 0.791 | 0.226 | 0.231 | 0.764 | 0.713 | 0.394 | 0.2 | 0.764 | 0.693 | 0.249 | 0.209 | 0.431 | 0.419 | 0.365 | 0.23 | 0.556 | 0.578 | 0.262 | 0.233
NCI-H596 | 1.22 | 0.563 | 0.263 | 0.239 | 0.872 | 0.276 | 0.0498 | 0.09 | 0.787 | 0.665 | 0.392 | 0.153 | 0.943 | 0.341 | 0.187 | 0.16 | 0.418 | 0.245 | 0.157 | 0.106
LCLC-97TM1 | 0.0824 | 0.0484 | 0.0476 | 0.0667 | 0.44 | 0.108 | 0.162 | 0.114 | 0.298 | 0.167 | 0.122 | 0.113 | 0.662 | 0.173 | 0.0769 | 0.0958 | 0.209 | 0.116 | 0.109 | 0.0963
NCI-H1993 | 1.18 | 0.551 | – | 0.61 | 0.799 | 0.499 | – | 0.562 | 0.538 | 0.57 | 0.625 | 0.6 | 0.869 | 0.45 | – | 0.723 | 0.694 | 0.834 | – | 0.588
HARA | 0.888 | 0.0756 | 0.0605 | 0.0587 | 1.04 | 0.0747 | 0.0574 | 0.0511 | 0.532 | 0.064 | 0.04 | 0.0478 | 0.604 | 0.0778 | 0.0593 | 0.0436 | 0.529 | 0.0709 | 0.0524 | 0.031
NCI-H460 | 0.591 | 0.013 | 0.0102 | 0.0119 | 1.05 | 0.0119 | 0.0108 | 0.0098 | 0.392 | 0.0364 | 0.0185 | 0.0206 | 0.089 | 0.0117 | 0.011 | 0.0113 | 0.264 | 0.0398 | 0.0429 | 0.0452
NCI-H1650 | 0.172 | 0.178 | 0.158 | 0.142 | 1.17 | 0.144 | 0.0928 | 0.139 | 0.426 | 0.15 | 0.136 | 0.123 | 0.648 | 0.15 | 0.169 | 0.143 | 0.536 | 0.146 | 0.101 | 0.112
EKVX | 1.02 | 0.451 | 0.109 | 0.149 | 0.738 | 0.298 | 0.0814 | 0.106 | 0.694 | 0.59 | 0.204 | 0.105 | 0.229 | 0.118 | 0.118 | 0.116 | 0.407 | 0.227 | 0.12 | 0.113
NCI-H1755 | 0.889 | 0.884 | 0.171 | 0.17 | 1.01 | 0.596 | 0.122 | 0.123 | 0.763 | 0.519 | 0.194 | 0.258 | 1.05 | 0.829 | 0.163 | 0.184 | 0.387 | 0.132 | 0.127 | 0.143
NCI-H1792 | 0.925 | 0.741 | 0.238 | 0.0774 | 0.678 | 0.174 | 0.0483 | 0.0639 | 0.729 | 0.539 | 0.36 | 0.174 | 0.848 | 0.808 | 0.0608 | 0.0733 | 0.234 | 0.121 | 0.0539 | 0.0574
NCI-H2087 | 0.998 | 0.135 | 0.142 | 0.123 | 0.729 | 0.0652 | 0.0695 | 0.0583 | 0.529 | 0.0975 | 0.11 | 0.0895 | 0.828 | 0.168 | 0.15 | 0.136 | 0.643 | 0.143 | 0.165 | 0.151
H3255 | 0.734 | 0.227 | 0.15 | 0.169 | 0.487 | 0.0787 | 0.0605 | 0.0759 | 0.593 | 0.394 | 0.279 | 0.226 | 0.378 | 0.233 | 0.123 | 0.214 | 0.415 | 0.261 | 0.164 | 0.182
NCI-H23 | 0.637 | 0.185 | 0.0983 | 0.106 | 0.74 | 0.173 | 0.113 | 0.12 | 0.714 | 0.227 | 0.132 | 0.1 | 0.31 | 0.128 | 0.12 | 0.129 | 0.41 | 0.148 | 0.126 | 0.145
HCC-827 | 0.986 | 0.746 | 0.213 | 0.178 | 1.02 | 0.699 | 0.127 | 0.108 | 0.887 | 0.565 | 0.129 | 0.116 | 0.191 | 0.183 | 0.149 | 0.132 | 0.998 | 0.446 | 0.242 | 0.223
